Entries after “also recorded” stand apart in the source; their conditions may differ.
Experiments:
MiaPaCa xenograft = assay: MiaPaCa pancreatic cancer xenograft model; format: in vivo, mice; conditions: 5, 10 and 15 mg/kg i.p. q.o.d., FIG. 10
Experimental: CX-3543 was tested against a number of cancer xenograft models to determine the in vivo efficacy. HCT-116 and PC-3 tumor-bearing nu/nu or MiaPaCa tumor-bearing SCID mice were administered reference and testing compounds on schedules indicated in figure legends. Tumor measurements were taken with calipers every other day or twice a week starting from the first day of dosing and body weights were measured at the same time points. Tumor volumes were calculated from the standard formula, W^2×L/2. c-MYC mRNA expression was measured with QPCR from all tumor samples following the final dose. 18S ribosomal RNA was used as a housekeeper and also quantified with QPCR.

[1] = test system: Escherichia coli (WP2-uvrA−); assay: Bacterial mutagenicity test (Ames assay); conditions: E. coli WP2-uvrA−, with and without S9
Experimental: The test article was dissolved in 5% dextrose.
The pH was then adjusted to 3.53.
94720. […] (ATCC numbers: 29629 and 49979, respectively).
Genotype tests were performed.
Both endpoints serve as toxicity indicators in this assay.

[2] = Subacute study of intravenously administered CX-3543 in rats (safety and tolerance); format: in vivo
Experimental: This study determines the safety and tolerance of CX-3543 at three dose levels administered intravenously once daily to rats for five consecutive days. Safety parameters will be monitored through observation, clinical pathology, and microscopic histopathology assessments. Selected animals will also undergo blood sample collection for pharmacokinetic/toxicokinetic evaluation.
The study was conducted using three (3) test and one (1) control article groups. The high and low test article groups and the control group consisted of 28 animals each and were used to assess tolerance. The medium test article group consisted of 64 animals of which 28 animals were used to assess tolerance and 36 animals were used to determine the level of test article in the blood at various time points after the first and fifth doses in the PK/TK portion of the study. The control article was the solution (5% dextrose in water; D5W) used to dilute the test article prior to administration and was administered at the same volume as the high dose test article group. The test article dosage levels for this study were 24, 7.6, and 2.4 mg/kg. Test and control articles were administered by intravenous (IV) injection into a tail vein over one minute on five consecutive days.
Blood samples for test article blood level analysis were taken as follows. […]

HCT-116 cells = assay: DNA cell cycle analysis; format: cell-based; conditions: serum-starved HCT-116 cells, 24 hr, 1 to 5 um
Experimental: The following protocol was followed in this example. Seed 1.5-2.0×10^6 cells/10 cm dish (seed one extra dish for unstained cells). Incubate cells in 37° C. humidified 5% CO2 incubator for 24 hours. For synchronizing cells in a low growth state to make cells quiescent, remove media and rinse once with serum-free media, add 10 ml of serum-free media to each dish. Incubate the cells for 24 hr in a 37° C. humidified 5% CO2 incubator. Remove media and add treatment (diluted in serum contained media, 10 ml): 1-5 μM CX-3543 plus control. Incubate the cells for 24 hr in a 37° C. humidified 5% CO2 incubator.
To trypsinize/isolate cells, remove treatment. Add 3 ml trypsin/EDTA solution. Keep floating cells and combine with attached cells. Incubate for 5 min in a 37° C. humidified 5% CO2 incubator. Add 3 ml media (containing FBS) to wells and pipette into centrifuge tube. Centrifuge at 1000 rpm for 5 minutes. Decant supernatant and re-suspend pellet in 2-3 ml PBS. Count cells and wash cells once by putting 2×10^6 cells/tube, adding 2 ml PBS and centrifuging at 1000 rpm for 5 minutes. Re-suspend pelleted cells in 0.3 ml cold PBS.
To fix cells, gently add 0.7 ml ice cold 70% ethanol drop wise to tube containing 0.3 ml of cell suspension in PBS while vortexing. Leave on Ice for one hour (or up to a few days at 4C). Centrifuge at 1000 rpm for 5 minutes. Wash one time with cold PBS (1-2 ml). […]

SMILES: CN1CCCC1CCNC(=O)c1cn2c3c(c(N4CCC(c5cnccn5)C4)c(F)cc3c1=O)Oc1cc3ccccc3cc1-2 (centres unmarked) [CX-3543]
- tumor growth inhibition (MiaPaCa xenograft): inhibits tumor growth; also recorded: significant tumor growth inhibition
- mutagenicity (reversion rates) [1]: non-mutagenic
- tolerance ([2]; five consecutive daily IV doses, mid- and low-dose levels (7.6 and 2.4 mg/kg)): toxicologically well tolerated
- mortality ([2]; high dose animals (24 mg/kg), five day course): approximately 5%
- effect on the distribution of cells throughout the cell cycle (HCT-116 cells): no observable effect
